Test [1] concerns the target H1047R PIK3CA enzyme (Homo sapiens, UniProt P42336, H1047R). Kind of test: ADP-Glo Biochemical PIK3CA Kinase Assay. Background: ADP-Glo first removes unused ATP, then detects ADP through luciferase.
Test [2] in a line: cells. The settings on record: Homo sapiens, MCF-10A, read-out: MCF10A IC50.

Chain of H1047R PIK3CA enzyme (P42336 whole entry H1047R): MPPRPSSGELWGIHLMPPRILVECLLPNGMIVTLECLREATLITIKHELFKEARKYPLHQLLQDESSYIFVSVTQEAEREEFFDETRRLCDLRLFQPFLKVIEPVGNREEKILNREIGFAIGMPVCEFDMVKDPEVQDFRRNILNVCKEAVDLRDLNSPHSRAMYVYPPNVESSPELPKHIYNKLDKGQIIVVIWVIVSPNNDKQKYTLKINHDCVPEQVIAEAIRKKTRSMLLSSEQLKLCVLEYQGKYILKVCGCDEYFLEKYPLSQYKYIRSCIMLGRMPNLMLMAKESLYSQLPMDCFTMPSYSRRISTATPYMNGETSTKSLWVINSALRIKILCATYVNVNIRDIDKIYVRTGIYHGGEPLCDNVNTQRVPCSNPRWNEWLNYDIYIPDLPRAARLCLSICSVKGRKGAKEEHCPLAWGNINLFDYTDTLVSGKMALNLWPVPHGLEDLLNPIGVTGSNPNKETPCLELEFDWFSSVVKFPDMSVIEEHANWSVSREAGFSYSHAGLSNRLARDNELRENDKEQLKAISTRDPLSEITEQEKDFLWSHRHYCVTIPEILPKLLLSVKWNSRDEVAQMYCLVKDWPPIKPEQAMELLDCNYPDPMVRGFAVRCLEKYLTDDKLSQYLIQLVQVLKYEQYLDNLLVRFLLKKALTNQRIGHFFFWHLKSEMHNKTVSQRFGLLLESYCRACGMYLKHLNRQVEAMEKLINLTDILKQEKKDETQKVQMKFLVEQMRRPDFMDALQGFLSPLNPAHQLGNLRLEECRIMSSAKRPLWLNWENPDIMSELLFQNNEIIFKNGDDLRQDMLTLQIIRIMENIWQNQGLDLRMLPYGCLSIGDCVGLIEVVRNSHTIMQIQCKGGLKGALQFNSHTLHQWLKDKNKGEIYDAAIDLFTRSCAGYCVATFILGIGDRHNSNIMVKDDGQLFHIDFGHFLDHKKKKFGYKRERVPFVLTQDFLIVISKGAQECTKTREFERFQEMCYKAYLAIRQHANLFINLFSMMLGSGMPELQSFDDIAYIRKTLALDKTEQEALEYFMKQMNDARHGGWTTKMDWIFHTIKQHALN
Chain of H1047R PIK3CA enzyme (P27986 whole entry partner): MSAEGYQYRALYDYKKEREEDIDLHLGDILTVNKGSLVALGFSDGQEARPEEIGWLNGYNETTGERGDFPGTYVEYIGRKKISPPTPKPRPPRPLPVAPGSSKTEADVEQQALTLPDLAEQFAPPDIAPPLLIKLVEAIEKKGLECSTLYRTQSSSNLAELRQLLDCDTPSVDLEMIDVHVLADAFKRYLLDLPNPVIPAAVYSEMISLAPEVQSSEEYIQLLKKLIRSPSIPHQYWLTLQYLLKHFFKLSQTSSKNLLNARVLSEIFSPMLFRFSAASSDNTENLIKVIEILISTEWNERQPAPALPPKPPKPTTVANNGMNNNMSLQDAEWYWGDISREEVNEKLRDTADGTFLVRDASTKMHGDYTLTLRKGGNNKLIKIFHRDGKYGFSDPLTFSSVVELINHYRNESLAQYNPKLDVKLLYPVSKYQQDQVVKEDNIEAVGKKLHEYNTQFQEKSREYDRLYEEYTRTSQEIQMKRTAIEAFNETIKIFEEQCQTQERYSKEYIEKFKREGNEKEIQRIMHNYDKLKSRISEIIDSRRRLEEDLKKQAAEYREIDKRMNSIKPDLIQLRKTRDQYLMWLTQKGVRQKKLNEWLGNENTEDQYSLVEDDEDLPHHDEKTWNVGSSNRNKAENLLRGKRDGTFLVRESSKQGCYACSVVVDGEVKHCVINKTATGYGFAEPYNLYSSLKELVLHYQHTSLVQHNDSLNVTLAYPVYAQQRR

Broadly, the IC50 is the concentration needed to halve the response being measured. `O=C(Nc1cc(-c2cnn3cccnc23)cc2c1C(c1cc(F)ccc1Cl)NC2=O)c1cc(F)cc(C(F)(F)F)c1` (centres unmarked) [Compound I-1046]: the half-maximal inhibitory concentration (IC50) is no more than 0.1 µM in test [1] and less than 1 µM in test [2].
In the case of `Cc1ccccc1C1NC(=O)c2cc(CNC(=O)OC(C)(C)C)cc(NC(=O)c3csc4ccccc34)c21` (centres unmarked) [Compound I-87], the half-inhibitory concentration (IC50) in test [1] was no more than 0.1 µM; in test [2], 1 to 5 µM.
On the same counts, the results for `O=C(Nc1cc(CS(=O)(=O)C2CC2)cc2c1C(c1cc(F)ccc1Cl)NC2=O)c1cc(F)cc(C(F)(F)F)c1` (centres unmarked) [Compound I-1081] are no more than 0.1 µM and less than 1 µM.
Taken in the same sequence, the figures for `O=C(Nc1cc(-c2ccc3nccnc3c2)cc2c1C(c1cc(F)ccc1Cl)NC2=O)c1cc(F)cc(C(F)(F)F)c1` (centres unmarked) [Compound I-1012] were no more than 0.1 µM and less than 1 µM.
On the same counts, the results for `N#Cc1ccc(-c2cc(NC(=O)c3cc(F)cc(C(F)(F)F)c3)c3c(c2)C(=O)NC3c2cc(F)ccc2Cl)cn1` (centres unmarked) [Compound I-928] are no more than 0.1 µM and less than 1 µM.
As to `Cc1ccccc1[C@H]1NC(=O)c2cccc(NC(=O)c3csc4c(F)cccc34)c21` [Compound I-38], the IC50 in test [1] was in the range of 0.1 to 0.5 µM; in test [2], 1 to 5 µM.
On the same counts, the results for `Cc1ccccc1C1NC(=O)c2cccc(NC(=O)c3coc4ccc(F)cc34)c21` (centres unmarked) [Compound I-19] are 0.5 to 1 µM and 1 to 5 µM.
Consider `O=C(Nc1cc(-c2cn3ccnc3cn2)cc2c1C(c1cc(F)ccc1Cl)NC2=O)c1cc(F)cc(C(F)(F)F)c1` (centres unmarked) [Compound I-946], for which the figures for the IC50 in test [1] and in test [2] were no more than 0.1 µM and less than 1 µM, respectively.
On the same counts, the results for `Cc1ccccc1[C@@H]1NC(=O)c2cc(N)cc(NC(=O)c3nsc4ccccc34)c21` [Compound I-92] are no more than 0.1 µM and less than 1 µM.
For `CNc1nc2ccc(-c3cc(NC(=O)c4cc(F)cc(C(F)(F)F)c4)c4c(c3)C(=O)NC4c3cc(F)ccc3Cl)cn2n1` (centres unmarked) [Compound I-2125], the figures for the IC50 in test [1] and in test [2] were no more than 0.1 µM and less than 1 µM, respectively.
Taken in the same sequence, the figures for `O=C(Nc1cc(NC2COC2)cc2c1[C@H](c1cc(F)ccc1Cl)NC2=O)c1cc(F)cc(C(F)(F)F)c1` [Compound I-814] were no more than 0.1 µM and less than 1 µM.
On to `O=C(Nc1cc(C2CC(O)C2)cc2c1C(c1cc(F)ccc1Cl)NC2=O)c1cc(F)cc(C(F)(F)F)c1` (centres unmarked) [Compound I-1019], for which the half-maximal inhibitory concentration (IC50) was no more than 0.1 µM in test [1] and less than 1 µM in test [2].
Taken in the same sequence, the figures for `CC(C)(C#N)n1cc(-c2cc(NC(=O)N3C[C@@](O)(C(F)(F)F)c4cc(F)ccc43)c3c(c2)C(=O)N[C@@H]3c2cc(F)ccc2Cl)cn1` (single isomer, unassigned) [Compound I-2613] were no more than 0.1 µM and less than 1 µM.
Taken in the same sequence, the figures for `O=C1N[C@@H](c2cc(F)ccc2Cl)c2c(NC(=O)N3C[C@](O)(C(F)(F)F)c4cc(F)ccc43)ccc(-n3ccnn3)c21` (single isomer, unassigned) [Compound I-2520] were no more than 0.1 µM and less than 1 µM.
Taken in the same sequence, the figures for `O=C1NCc2cc(-c3cc(NC(=O)c4cc(F)cc(C(F)(F)F)c4)c4c(c3)C(=O)NC4c3cc(F)ccc3Cl)ccc2O1` (centres unmarked) [Compound I-981] were no more than 0.1 µM and less than 1 µM.
On to `O=C(Nc1cc(-c2cccc3nonc23)cc2c1C(c1cc(F)ccc1Cl)NC2=O)c1cc(F)cc(C(F)(F)F)c1` (centres unmarked) [Compound I-1031], for which the figures for the IC50 in test [1] and in test [2] were no more than 0.1 µM and less than 1 µM, respectively.
For the molecule `O=C1NC(c2ccccc2C(F)F)c2c(NC(=O)c3nsc4ccccc34)cccc21` (centres unmarked) [Compound I-122], the half-maximal inhibitory concentration (IC50) in test [1] is no more than 0.1 µM; in test [2], 1 to 5 µM.
Regarding `O=C1N[C@@H](c2cc(F)ccc2Cl)c2c(NC(=O)N3C[C@](O)(C(F)(F)F)c4cc(F)ccc43)ccc(-n3cccn3)c21` (single isomer, unassigned) [Compound I-2497], the half-maximal inhibitory concentration (IC50) in test [1] was no more than 0.1 µM; in test [2] it was less than 1 µM.
Turning to `O=C(Nc1cc(Nc2cc[nH]n2)cc2c1C(c1cc(F)ccc1Cl)NC2=O)c1cc(F)cc(C(F)(F)F)c1` (centres unmarked) [Compound I-1112], the values for the IC50 in test [1] and in test [2] were no more than 0.1 µM and less than 1 µM, respectively.
On the same counts, the results for `Cn1ccc(-c2cc(NC(=O)c3cc(F)cc(C(F)(F)F)c3)c3c(c2)C(=O)N[C@@H]3c2cc(F)ccc2Cl)cc1=O` (stereo in doubt) [Compound I-1002] are no more than 0.1 µM and less than 1 µM.
On the same counts, the results for `CNc1cc(NC(=O)N2C[C@](O)(C(F)(F)F)c3cc(F)ccc32)c2c(n1)C(=O)N[C@@H]2c1cc(F)ccc1Cl` (single isomer, unassigned) [Compound I-2644] are no more than 0.1 µM and less than 1 µM.
On the same counts, the results for `Cn1ccc(Nc2cc(NC(=O)c3cc(F)cc(C(F)(F)F)c3)c3c(c2)C(=O)N[C@H]3c2cc(F)ccc2Cl)n1` [Compound I-1071] are no more than 0.1 µM and less than 1 µM.
On to `O=C(Nc1cc(-c2nc3ccccc3[nH]2)cc2c1C(c1cc(F)ccc1Cl)NC2=O)c1cc(F)cc(C(F)(F)F)c1` (centres unmarked) [Compound I-1101], for which the figures for the 50% inhibitory concentration (IC50) in test [1] and in test [2] were no more than 0.1 µM and less than 1 µM, respectively.
Taken in the same sequence, the figures for `O=C(Nc1cccc2c1[C@H](c1cc(F)ccc1Cl)NC2=O)c1cc(F)cc(C(F)(F)F)c1` [Compound I-500] were no more than 0.1 µM and less than 1 µM.
Taken in the same sequence, the figures for `CSCc1cc(NC(=O)c2cc(F)cc(C(F)(F)F)c2)c2c(c1)C(=O)NC2c1cc(F)ccc1Cl` (centres unmarked) [Compound I-914] were no more than 0.1 µM and less than 1 µM.
Taken in the same sequence, the figures for `CC(C)(CN)n1cc(-c2cc(NC(=O)c3cc(F)cc(C(F)(F)F)c3)c3c(c2)C(=O)NC3c2cc(F)ccc2Cl)cn1` (centres unmarked) [Compound I-2186] were no more than 0.1 µM and 1 to 5 µM.
Regarding `O=C1N[C@@H](c2cc(F)ccc2Cl)c2c(NC(=O)N3C[C@](O)(C(F)(F)F)c4cc(F)ccc43)cc(Cl)nc21` (single isomer, unassigned) [Compound I-2704], the IC50 in test [1] is no more than 0.1 µM; in test [2] it was less than 1 µM.
Consider `COc1ncc(-c2cc(NC(=O)c3cc(F)cc(C(F)(F)F)c3)c3c(c2)C(=O)N[C@H]3c2cc(F)ccc2Cl)cn1` [Compound I-882], for which the IC50 was no more than 0.1 µM in test [1] and less than 1 µM in test [2].
Consider `O=C1NC(c2cc(F)ccc2Cl)c2c(NC(=O)N3CC(O)(C(F)(F)F)c4cc(F)ccc43)cc(F)cc21` (centres unmarked) [Compound I-2623], for which the IC50 was no more than 0.1 µM in test [1] and less than 1 µM in test [2].
Taken in the same sequence, the figures for `Cn1cnnc1Nc1cc(NC(=O)c2cc(F)cc(C(F)(F)F)c2)c2c(c1)C(=O)NC2c1cc(F)ccc1Cl` (centres unmarked) [Compound I-1083] were no more than 0.1 µM and 1 to 5 µM.
Taken in the same sequence, the figures for `O=C(Nc1cc(-c2n[nH]c3ncccc23)cc2c1C(c1cc(F)ccc1Cl)NC2=O)c1cc(F)cc(C(F)(F)F)c1` (centres unmarked) [Compound I-939] were no more than 0.1 µM and less than 1 µM.
On the same counts, the results for `O=C(Nc1cc(-c2ccc(=O)n(C3CC3)c2)nc2c1[C@H](c1cc(F)ccc1Cl)NC2=O)c1cc(F)cc(C(F)(F)F)c1` [Compound I-747] are no more than 0.1 µM and less than 1 µM.
As to `Cn1cc(-c2cc(NC(=O)c3cc(F)cc(C(F)(F)F)c3)c3c(c2)C(=O)NC3c2cc(F)ccc2C(F)F)cn1` (centres unmarked) [Compound I-220], the IC50 was no more than 0.1 µM in test [1] and less than 1 µM in test [2].
Taken in the same sequence, the figures for `O=C(Nc1cc(-c2cccc3ncccc23)cc2c1C(c1cc(F)ccc1Cl)NC2=O)c1cc(F)cc(C(F)(F)F)c1` (centres unmarked) [Compound I-931] were no more than 0.1 µM and less than 1 µM.
On the same counts, the results for `O=C(Nc1cc(-c2cccc3nccn23)cc2c1C(c1cc(F)ccc1Cl)NC2=O)c1cc(F)cc(C(F)(F)F)c1` (centres unmarked) [Compound I-1013] are no more than 0.1 µM and less than 1 µM.
Regarding `Cn1ncnc1Nc1cc(NC(=O)c2cc(F)cc(C(F)(F)F)c2)c2c(c1)C(=O)NC2c1cc(F)ccc1Cl` (centres unmarked) [Compound I-974], the IC50 in test [1] is no more than 0.1 µM; in test [2] it was less than 1 µM.
On the same counts, the results for `COc1nc(-c2cc(NC(=O)c3cc(F)cc(C(F)(F)F)c3)c3c(c2)C(=O)NC3c2cc(F)ccc2Cl)cs1` (centres unmarked) [Compound I-1066] are no more than 0.1 µM and 1 to 5 µM.
On the same counts, the results for `Nc1cc(NC(=O)c2cc(F)cc(C(F)(F)F)c2)c2c(c1)C(=O)N[C@H]2c1cc(F)ccc1Cl` [Compound I-218] are no more than 0.1 µM and less than 1 µM.
Taken in the same sequence, the figures for `O=C(Nc1cc(-c2cnc3ncnn3c2)cc2c1C(c1cc(F)ccc1Cl)NC2=O)c1cc(F)cc(C(F)(F)F)c1` (centres unmarked) [Compound I-969] were no more than 0.1 µM and less than 1 µM.
Take `N#Cc1c(-c2cc(NC(=O)c3cc(F)cc(C(F)(F)F)c3)c3c(c2)C(=O)N[C@H]3c2cc(F)ccc2Cl)ccc2ncnn12` (single isomer, unassigned) [Compound I-1648]: the IC50 in test [2] is less than 1 µM.
Still for that read-out and setting: then `N#Cc1c(-c2cc(NC(=O)c3cc(F)cc(C(F)(F)F)c3)c3c(c2)C(=O)N[C@@H]3c2cc(F)ccc2Cl)ccc2ncnn12` (single isomer, unassigned) [Compound I-1647], with 1 to 5 µM.
The molecule `N#Cc1ncc(-c2cc(NC(=O)c3cc(F)cc(C(F)(F)F)c3)c3c(c2)C(=O)N[C@H]3c2cc(F)ccc2Cl)cn1` [Compound I-979] yielded an IC50 in test [1] of 0.1 to 0.5 µM.
`O=C(Nc1cc(N2CC3CNC(=O)C3C2)cc2c1C(c1cc(F)ccc1Cl)NC2=O)c1cc(F)cc(C(F)(F)F)c1` (centres unmarked) [Compound I-1309] gave an IC50 in test [1] of no more than 0.1 µM.
Same read-out and setting: for `O=C1NCc2c(NC(=O)N3CCCCC3Cc3ccccc3)cccc21` (centres unmarked) [Compound I-990] the value was 10 to 100 µM; for `Cc1ccccc1C1NCCc2c(Br)ccc(NC(=O)c3cc(F)cc(C(F)(F)F)c3)c21` (centres unmarked) [Compound I-1963], 10 to 100 µM.
The same measure, in the same setting: then `O=C1NC(c2cc(F)ccc2Cl)c2c(NC(=O)C3CCCN(CC(F)(F)F)C3)cc(-c3ccc4ncnn4c3)cc21` (single isomer, unassigned) [Compound I-1964], with 10 to 100 µM; and `[2H][C@]1(c2cc(F)ccc2Cl)NC(=O)c2cc(-c3ccc4ncnn4c3)cc(NC(=O)c3cc(F)cc(C(F)(F)F)c3)c21` (single isomer, unassigned) [Compound I-1600], with no more than 0.1 µM.
